Source: ChEMBL document CHEMBL4483862, “Open-source discovery of chemical leads for next-generation chemoprotective antimalarials” (2018)

Test system: Plasmodium berghei
Assay: Luciferase/luciferin-expressing antifolate-resistant parasites were used to infect a culture of HepG2 cells that were pre-incubated with compounds. Infected hepatocytes emit light due to the luciferase reaction. Assay results are presented as the percent inhibition of light emission compared to control. […]
Type: functional
Settings: sporozoite; for IC50: read-out: LUCIFERASE INFECTION ASSAY - IC50; for IC90: read-out: LUCIFERASE INFECTION ASSAY - IC90

## CCC(=O)c1ccc(OCCCCn2cnc3ccccc32)cc1
  IC50: > 10 µM
  IC90: > 10 µM

## COc1cc(NC(=O)Cc2c(F)cccc2Cl)cc(OC)c1OC
  IC50: > 10 µM
  IC90: > 10 µM

## Cc1cc(O)c(CN2CCN(C(=O)C34CC5CC(CC(C5)C3)C4)CC2)cc1C
  IC50: > 10 µM
  IC90: > 10 µM

## CC(c1ccccc1)N(C)C(=O)c1nn(-c2ccccc2)c2c1CCC2 (configuration not stated)
  IC50: > 10 µM
  IC90: > 10 µM

## CCc1nnc(NC(=O)CCSCc2cn3ccccc3n2)s1
  IC50: > 10 µM
  IC90: > 10 µM

## COc1ccc(NC(=O)c2ccc3c(c2)C(=O)N(c2ccccc2Cl)C3=O)cn1
  IC50: > 10 µM
  IC90: > 10 µM

## Cc1ccc(Nc2nc(C(F)(F)F)nc3ccccc23)cc1S(=O)(=O)N(C)C
  IC50: > 10 µM
  IC90: > 10 µM

## CCOc1cc2c(cc1/C=C/C(=O)c1ccc3[nH]c(=O)[nH]c3c1)OC(C)C2 (configuration not stated)
  IC50: > 10 µM
  IC90: > 10 µM

## O=C1CN(C(=O)CNC(c2ccccc2)c2cccs2)c2ccccc2N1 (configuration not stated)
  IC50: > 10 µM
  IC90: > 10 µM

## O=C(c1ccccc1)c1ccc(OCc2coc(-c3ccccc3)n2)cc1
  IC50: > 10 µM
  IC90: > 10 µM

## N#Cc1ccnc(N2CCN(c3nc(CSc4ccccc4)nc4sc5c(c34)CCC5)CC2)c1
  IC50: > 10 µM
  IC90: > 10 µM

## CSCc1nc(=O)c2c(C)c(C(=O)NN3C(=O)NC(C)(c4ccccc4)C3=O)sc2[nH]1 (configuration not stated)
  IC50: > 10 µM
  IC90: > 10 µM

## CN(C)CCOCCOc1c(Cl)cc(Cl)cc1Cl
  IC50: > 10 µM
  IC90: > 10 µM

## Cc1nn(-c2ccccc2)c(C)c1C(=O)C(=O)NC(C)c1ccc(S(N)(=O)=O)cc1 (configuration not stated)
  IC50: > 10 µM
  IC90: > 10 µM

## CCOc1ncccc1C(=O)N(C)Cc1cn(-c2ccccc2)nc1-c1ccccc1
  IC50: 4.36 µM
  IC90: 5.34 µM

## CC1(c2ccco2)NC(=O)N(NC(=O)c2ccc3ccccc3n2)C1=O (configuration not stated)
  IC50: > 10 µM
  IC90: > 10 µM

## O=C(CCSc1n[nH]c(=O)n1C1CC1)Nc1ccccc1
  IC50: > 10 µM
  IC90: > 10 µM

## CCOC(=O)C1SC(C(C#N)c2ccccn2)=NC1(c1ccc(C)cc1)C(F)(F)F (configuration not stated)
  IC50: > 10 µM
  IC90: > 10 µM

## CCCOc1c(Cl)cc(C(=O)N2CCN(C)c3nc4ccccc4nc32)cc1OCC
  IC50: > 10 µM
  IC90: > 10 µM

## CC(C)Cn1c(N)c(C(=O)CSc2nnc(COc3ccccc3Cl)o2)c(=O)n(C)c1=O
  IC50: 3.28 µM
  IC90: 3.85 µM

## O=C(Nc1ccc(-c2csc(N3CCOCC3)n2)cc1)c1ccc(Br)c([N+](=O)[O-])c1
  IC50: > 10 µM
  IC90: > 10 µM

## CN(CC(=O)Nc1ccc(Cl)c(S(=O)(=O)N2CCOCC2)c1)C(=O)C1CCCO1 (configuration not stated)
  IC50: > 10 µM
  IC90: > 10 µM

## CC(CNC(=O)C1CCN(S(=O)(=O)c2cccs2)CC1)c1nc2ccccc2n1C(F)F (configuration not stated)
  IC50: > 10 µM
  IC90: > 10 µM

## CCOc1cc(CN(CC)CC(=O)Nc2c(F)cccc2F)ccc1OCc1cccs1
  IC50: > 10 µM
  IC90: > 10 µM

## CC(CO)NCCOCCOc1ccc(Cl)cc1Cc1ccccc1 (configuration not stated)
  IC50: > 10 µM
  IC90: > 10 µM

## Cc1nc(-c2ccc(CNC(=O)COc3ccccc3-c3ccccc3)o2)cs1
  IC50: > 10 µM
  IC90: > 10 µM

## Cc1sc2ncnc(SCC(=O)NC3CCN(Cc4ccccc4)C3)c2c1C (configuration not stated)
  IC50: > 10 µM
  IC90: > 10 µM

## Cc1nn(C)c2nc(C3CC3)cc(C(=O)Nc3ccccc3C(=O)NC(C)c3ccccc3)c12 (configuration not stated)
  IC50: 8.82 µM
  IC90: > 10 µM

## Cc1ccc2nc(CNc3cc(Cl)ccc3N3CCCC3)cc(=O)n2c1
  IC50: > 10 µM
  IC90: > 10 µM

## CCOC(=O)c1sc2nc(C)nc(N3CC=C(c4c[nH]c5ncccc45)CC3)c2c1C
  IC50: > 10 µM
  IC90: > 10 µM

## O=C(c1ccc(N2CCCC2=O)cc1)N1CCN(C2CCS(=O)(=O)C2)CC1 (configuration not stated)
  IC50: > 10 µM
  IC90: > 10 µM

## Cc1ccc(CN(CCc2ccccc2)Cn2nc(CCC(N)=O)n(C3CC3)c2=S)s1
  IC50: > 10 µM
  IC90: > 10 µM

## CCOc1cc2c(cc1CN(Cc1nc(=O)c3cc(-c4ccccc4)sc3[nH]1)Cc1nc(=O)c3cc(-c4ccccc4)sc3[nH]1)OC(C)C2 (configuration not stated)
  IC50: > 10 µM
  IC90: > 10 µM

## COC(=O)Cc1cc(=O)nc(SCC(=O)c2cc(C)n(-c3ccc(C(C)C)cc3)c2C)[nH]1
  IC50: > 10 µM
  IC90: > 10 µM

## CCN(CC(=O)NC(C)(C)C)C(=O)c1cc(OC)c(Br)c(OC)c1
  IC50: > 10 µM
  IC90: > 10 µM

## CCOC(=O)c1sc2cccc(F)c2c1CSc1nc2sccc2c(=O)n1C
  IC50: 4.11 µM
  IC90: 9.27 µM

## CC(C)=CC(=O)NC(c1ccccc1)c1ccc(Cl)cc1 (configuration not stated)
  IC50: > 10 µM
  IC90: > 10 µM

## O=C(Nc1ccc2c(c1)OCO2)C1CCN(Cn2nc3n(c2=O)CCCCC3)CC1
  IC50: > 10 µM
  IC90: > 10 µM

## COc1ccc(NC(=O)C(C)N2CCN(CCc3ccccc3)CC2)cc1Cl (configuration not stated)
  IC50: > 10 µM
  IC90: > 10 µM

## Cc1cc(-c2csc(Cc3ccccc3)n2)c(C)n1NC(=O)c1nn(C)c(=O)c2ccccc12
  IC50: > 10 µM
  IC90: > 10 µM

## CN(c1ccccc1)S(=O)(=O)c1cccc(C(=O)Nc2ccc(-c3cn4c(n3)CCC4)cc2)c1
  IC50: > 10 µM
  IC90: > 10 µM

## Cc1nc(COc2ccc(F)cc2)sc1C(=O)Nc1nc2c(s1)CC(C)CC2 (configuration not stated)
  IC50: > 10 µM
  IC90: > 10 µM

## CCN(CC)C(=O)CN1CCN(C(=O)c2ccc(S(=O)(=O)N3CCOCC3)cc2)CC1
  IC50: > 10 µM
  IC90: > 10 µM

## C1CCN(Cc2nc(NC3CCN(C4CC4)CC3)c3c4c(sc3n2)CCCC4)CC1
  IC50: > 10 µM
  IC90: > 10 µM

## Cc1cccc(N2CCN(C(=O)/C=C/c3cnn(-c4ccccc4)c3)CC2)c1
  IC50: > 10 µM
  IC90: > 10 µM

## CC1CCN(CCCCOc2cccc(Cl)c2)CC1
  IC50: > 10 µM
  IC90: > 10 µM

## N#Cc1cccc(NC(=O)c2cc(-c3cccnc3)nc3c2cnn3Cc2ccccc2Cl)c1
  IC50: > 10 µM
  IC90: > 10 µM

## COC(=O)c1ccc2c(=O)n(-c3ccccc3)c(SC3CCCCC3=O)nc2c1 (configuration not stated)
  IC50: > 10 µM
  IC90: > 10 µM

## CN(Cc1ccccc1N1CCCCC1)C(=O)c1ccc(NC(=O)C2CC2)cc1
  IC50: 2.9 µM
  IC90: 3.37 µM

## Cc1oc(-n2cccc2)c(C#N)c1C(=O)Nc1nc(-c2ccccn2)cs1
  IC50: 9.43 µM
  IC90: > 10 µM

## Cc1ccc(NS(=O)(=O)c2ccc(C(=O)NNC(=O)COc3ccc(C#N)cc3)cc2)cc1
  IC50: > 10 µM
  IC90: > 10 µM

## CC(C)(C)OC(=O)NCc1ccc(C(=O)NNC(=O)c2ccccc2O)cc1
  IC50: > 10 µM
  IC90: > 10 µM

## CC(=O)c1sc(-c2ccc(OCC(=O)Nc3ccc(S(=O)(=O)N4CCCC4)cc3)cc2)nc1C
  IC50: > 10 µM
  IC90: > 10 µM

## CCN(CC(=O)Nc1ccc2c(c1)OCCO2)C(=O)CCCc1nc2ccccc2s1
  IC50: > 10 µM
  IC90: > 10 µM

## COc1ccc(C(C)(C)C)cc1NC(=O)c1sc2nc3n(c(=O)c2c1C)CCC3
  IC50: > 10 µM
  IC90: > 10 µM

## O=C(CN1CCC(NC(=O)c2cn(-c3ccccc3)nc2-c2cccs2)CC1)Nc1ccccc1
  IC50: > 10 µM
  IC90: > 10 µM

## CC(Oc1ccccc1[N+](=O)[O-])C(=O)N(c1nccs1)C1CCCCC1 (configuration not stated)
  IC50: > 10 µM
  IC90: > 10 µM

## O=C(Nc1cccc(S(=O)(=O)NC2=NCCC2)c1)c1ccc2nccnc2c1
  IC50: > 10 µM
  IC90: > 10 µM

## CCNC(=O)Cn1c(=O)/c(=C\c2ccccc2Cl)s/c1=C\C(=O)c1ccccc1C
  IC50: > 10 µM
  IC90: > 10 µM

## O=C(c1ccco1)N1CCC(Nc2nc(-c3cccs3)nc3sc4c(c23)CCCC4)CC1
  IC50: > 10 µM
  IC90: > 10 µM

## C/C=C/c1ccc(OCC(=O)NCc2ccc(S(N)(=O)=O)cc2)c(OC)c1
  IC50: > 10 µM
  IC90: > 10 µM

## COc1ccc(C(C)NC(=O)CCCN2C(=O)c3ccccc3C2=O)cc1F (configuration not stated)
  IC50: > 10 µM
  IC90: > 10 µM

## Cc1ccc(-c2c(C)sc3[nH]c(CN(Cc4nc(=O)c5c(-c6ccc(C)cc6)c(C)sc5[nH]4)Cc4ccccc4CN4CCCC4)nc(=O)c23)cc1
  IC50: > 10 µM
  IC90: > 10 µM

## COc1cc(C(=O)N(C)Cc2ccccc2N2CCOCC2)cc(OC)c1OC
  IC50: > 10 µM
  IC90: > 10 µM

## CCOC(=O)/C(=C\c1ccc(Cl)c([N+](=O)[O-])c1)C1=Nn2c(nnc2-c2cccs2)SC1
  IC50: > 10 µM
  IC90: > 10 µM

## Cc1nn(C)c(Cl)c1C=C(C(=O)NCCc1ccccc1)C(=O)NCCc1ccccc1
  IC50: > 10 µM
  IC90: > 10 µM

## N#CC1=C2C=CC=CN2C(c2ccccc2)(C(F)(F)F)N=C1SCC(=O)Nc1ccc(Cl)c(Cl)c1 (configuration not stated)
  IC50: > 10 µM
  IC90: > 10 µM

## O=C(CN1CCC(n2c(=O)[nH]c3ccccc32)CC1)NCCC1=CCCCC1
  IC50: > 10 µM
  IC90: > 10 µM

## O=C(Nc1ccc(-c2nccs2)cc1)c1occc1COc1ccccc1
  IC50: > 10 µM
  IC90: > 10 µM

## O=C(Nc1nc2c(s1)CCCC2)c1c[nH]c(=S)n1-c1ccccc1
  IC50: > 10 µM
  IC90: > 10 µM

## Cc1c(C(=O)Nc2cccc(S(=O)(=O)N(C)C)c2)cnn1-c1ccc(=O)[nH]n1
  IC50: > 10 µM
  IC90: > 10 µM

## Cc1[nH]c(=O)[nH]c(=O)c1C(=O)/C=C/c1cn(-c2ccccc2)nc1-c1cc2ccccc2o1
  IC50: > 10 µM
  IC90: > 10 µM

## Cc1ccc(-c2nnc(SCC(=O)Nc3ccccc3C(=O)NCc3ccccc3)[nH]2)cc1
  IC50: > 10 µM
  IC90: > 10 µM

## COc1cc(OC)cc(C(=O)NNC(=O)CCC(=O)c2ccc(Cl)s2)c1
  IC50: > 10 µM
  IC90: > 10 µM

## NS(=O)(=O)c1ccc(N2CCOCC2)c(C(=O)NCCOc2ccc3ccccc3c2)c1
  IC50: > 10 µM
  IC90: > 10 µM

## CC(=O)N(c1nc(/C=C/C(=O)c2ccc(F)c(F)c2)cs1)c1c(C)cccc1C
  IC50: > 10 µM
  IC90: > 10 µM

## Cc1ccc(/C=C(\C#N)c2nc(=O)c3c4c(sc3[nH]2)CC(C)CC4)o1 (configuration not stated)
  IC50: > 10 µM
  IC90: > 10 µM

## O=C(Nc1ccc2c(c1)nc1n2CCCCC1)C1CC=CCC1 (configuration not stated)
  IC50: > 10 µM
  IC90: > 10 µM

## CNC(=O)c1cccc(NC(=O)c2cc(-c3ccco3)nc3c2cnn3C(C)C)c1
  IC50: > 10 µM
  IC90: > 10 µM

## Cc1nn(-c2ccccc2)c(Oc2ccc(Br)cc2)c1CNC1CCC(O)CC1 (configuration not stated)
  IC50: > 10 µM
  IC90: > 10 µM

## O=C(NCCN1C(=O)S/C(=C\c2ccccc2Cl)C1=O)c1ccc(Br)o1
  IC50: > 10 µM
  IC90: > 10 µM
